Test results taken from patent US20120016010A1, “RNA Interference Mediated Inhibition of BTB and CNC Homology 1, Basic Leucine Zipper Transcription Factor 1 (BACH1) Gene Expression Using Short Interfering Nucleic Acid (siNA)” (Merck Sharp & Dohme Corp, priority 2009, published 2012).
[invAb] = inverted abasic unit; d = 2'-deoxy (DNA); m = 2'-O-methyl; r = 2'-OH (RNA); f = 2'-fluoro

Assays:
[1] = system: Bach1 mRNA; experiment: Initial screen: Bach1 mRNA knock-down in human A549 cells (96-well transfection, quantitative RT-PCR); type: cell-based; conditions: Bach1 mRNA, 10 nM siNA, human A549 cells, n = 2, mean ± S.D., normalized to GAPDH and non-targeting control, 24 hrs post-transfection
Procedure: (§1) All cells were obtained from ATCC (Manassas, Va.) unless otherwise indicated. Cells were grown and transfected under standard conditions, which are detailed below for each cell line.
(§2) Cells were plated in all wells of a tissue-culture treated, 96-well plate at a final count of 5000 cells/well in 100 μL of the appropriate culture media. The cells were cultured for 24 hours after plating at 37° C. in the presence of 5% CO2.
(§3) After 24 hours, complexes containing siNA and RNAiMax were created as follows: A solution of RNAiMax diluted 33-fold in OPTI-MEM was prepared. […] After incubation of RNAiMax/OPTI-MEM solution at room temperature for 5 min, an equal volume of the siNA solution and the RNAiMax solution were added together for each of the siNAs.
(§4) This solution was incubated at room temperature for 20 minutes. After incubation, 20 uL of the solution was added to each of the relevant wells. The final concentration of siNA in each well was 10 nM and the final volume of RNAiMax in each well was 0.3 ul. […]
(§5) Briefly, a 60 uL (1 plate) or 110 uL (2 plates) of the Lysis Solution with DNase I was dispensed into each well of the Lysis Buffer Plate (twin.tec full skirt plate). The lysis buffer and stop plates were stored at 4° C. until the cells were washed.
(§6) The plate was spun at 1100 rpm for 5 minutes. The culture medium was aspirated and discarded from the wells of the culture plate. The lysis was performed automatically using a BioMek FX instrument and method. After the Biomek method was completed, the lysis plate was incubated for 2 min at room temperature. The lysis plate can be stored for 2 hours at 4° C., or at −20° C. or −80° C. for two months.
(§7) Each well of the reverse transcription plate required 10 uL of 2× reverse transcriptase Buffer, 1 uL of 20× reverse transcription enzyme and 2 uL of nuclease-free water. The reverse transcription master mix was prepared by mixing 2× reverse transcription buffer, 20× reverse transcription enzyme mix, and nuclease-free water. 13 uL of the reverse transcription master mix was dispensed into each well of the reverse transcription plate (semi-skirted). A separate reverse transcription plate was prepared for each cell plate. The plate was loaded onto a Biomek NX or Biomek FX Dual −96 and the Biomek method was run. The program is programmed to automatically added 7 uL of lysate from the cell lysis procedure described above into each well of the reverse transcription plate. The plate is sealed and spun on a centrifuge (1000 rpm for 30 seconds) to settle the contents to the bottom of the reverse transcription plate. The plate is placed in a thermocycler at 37° C. for 60 min, 95° C. for 5 min, and 4° C. until the plate is removed from the thermocycler. Upon removal, if not used immediately, the plate was frozen at −20° C.
(§8) A series of probes and primers were used to detect the various mRNA transcripts of the genes of Bach1, HMOX-1, and GAPDH in mouse and human cell lines. The assays were performed on an ABI 7900 instrument, according to the manufacturer's instructions. […] The PCR reactions were carried out at 50° C. for 2 min, 95° C. for 20 min followed by 40 cycles at 95° C. for 15 secs and 60° C. for 1 min
(§9) Within each experiment, the […] was set in the exponential phase of the amplification curve, and based on the intersection point of the baselines with the amplification curve, a Ct value was assigned by the instrument.
(§10) The expression level of the gene of interest and % knock-down was calculated using Comparative Ct method:
(§11) ΔCt=ΔCt(Target siRNA)−ΔCt(NTC)
(§12) Relative expression level=2^−ΔΔCt
(§13) The non-targeting control siNA was, unless otherwise indicated, chosen as the value against which to calculate the % knock-down, because it is the most relevant control.

[2] = system: Bach1 mRNA; experiment: Initial screen: Bach1 mRNA knock-down in mouse NIH 3T3 cells (96-well transfection, quantitative RT-PCR); type: cell-based; conditions: mouse NIH3T3 cells, n = 2, 24 hrs post-transfection, protocol 10 nM siNA
Procedure: as §1, §2, §3, §4, §5, §6, §7, §8, §9, §10, §11, §12, §13

Substance | % KD [1] [%] | % KD [2] [%]
29963-DC: Bach1 siNA duplex, target site 362; sense B GGAuuuGAAccuuuAAuuc TTB (SEQ 75); antisense GAAuuAAAGGuucAAAuccUU (SEQ 76) (sense GGAUUUGAACCUUUAAUUCTT; antisense GAAUUAAAGGUUCAAAUCCUU; sense: DNA at AGT, 2'-fluoro at CU, [invAb] at 5' end, 3' end, backbone not given here; antisense: sugars from the 5' end rrrffmmmmmfffmmmfffmm, backbone not given here) | 32.9 ± 3.4 | 18.5 ± 2.2
29965-DC: Bach1 siNA duplex, target site 596; sense B GAccAGAGGGAucuAGAAA TTB (SEQ 79); antisense UUUcuAGAucccucuGGucUU (SEQ 80) (sense GACCAGAGGGAUCUAGAAATT; antisense UUUCUAGAUCCCUCUGGUCUU; sense: sugars from the 5' end d2 f2 d7 f3 d7, [invAb] at 5' end, 3' end, backbone not given here; antisense: sugars from the 5' end rrrffmmmfffffffmmffmm, backbone not given here) | 34.4 ± 3.6 | 4.8 ± 6.3
29966-DC: Bach1 siNA duplex, target site 1375; sense B GGccAAAGAuGGcucAGAA TTB (SEQ 81); antisense UUCuGAGccAucuuuGGccUU (SEQ 82) (sense GGCCAAAGAUGGCUCAGAATT; antisense UUCUGAGCCAUCUUUGGCCUU; sense: DNA at AGT, 2'-fluoro at CU, [invAb] at 5' end, 3' end, backbone not given here; antisense: sugars from the 5' end rrrfmmmffmfffffmmffmm, backbone not given here) | 57.3 ± 5.9 | −12.7 ± 7.4
29967-DC: Bach1 siNA duplex, target site 494 (mouse); sense B GAGuuucuAAGcGuAcAcA TTB (SEQ 83); antisense UGUGuAcGcuuAGAAAcucUU (SEQ 84) (sense GAGUUUCUAAGCGUACACATT; antisense UGUGUACGCUUAGAAACUCUU; sense: DNA at AGT, 2'-fluoro at CU, [invAb] at 5' end, 3' end, backbone not given here; antisense: sugars from the 5' end rrrmfmfmfffmmmmmfffmm, backbone not given here) | 34.6 ± 6.7 | 34.7 ± 8.4
29968-DC: Bach1 siNA duplex, target site 671 (mouse); sense B GcAGAuGAAuucuuGGAAA TTB (SEQ 85); antisense UUUccAAGAAuucAucuGcUU (SEQ 86) (sense GCAGAUGAAUUCUUGGAAATT; antisense UUUCCAAGAAUUCAUCUGCUU; sense: DNA at AGT, 2'-fluoro at CU, [invAb] at 5' end, 3' end, backbone not given here; antisense: sugars from the 5' end rrrffmmmmmfffmfffmfmm, backbone not given here) | 28.2 ± 3.7 | 71 ± 8.7
29969-DC: Bach1 siNA duplex, target site 1790 (mouse); sense B GAuuuccAAuccuuGuuGA TTB (SEQ 87); antisense UCAAcAAGGAuuGGAAAucUU (SEQ 88) (sense GAUUUCCAAUCCUUGUUGATT; antisense UCAACAAGGAUUGGAAAUCUU; sense: DNA at AGT, 2'-fluoro at CU, [invAb] at 5' end, 3' end, backbone not given here; antisense: sugars from the 5' end rrrmfmmmmmffmmmmmffmm, backbone not given here) | 36 ± 7.3 | 72.7 ± 4.5
29970-DC: Bach1 siNA duplex, target site 1472 (mouse); sense B GAGuGucccuGGuuGGGuA TTB (SEQ 89); antisense UACccAAccAGGGAcAcucUU (SEQ 90) (sense GAGUGUCCCUGGUUGGGUATT; antisense UACCCAACCAGGGACACUCUU; sense: DNA at AGT, 2'-fluoro at CU, [invAb] at 5' end, 3' end, backbone not given here; antisense: sugars from the 5' end rrrffmmffmmmmmfmfffmm, backbone not given here) | 46.8 ± 5.1 | 69.4 ± 4.8
29971-DC: Bach1 siNA duplex, target site 2488 (mouse); sense B GuAGcuuucuGuuGAGGGA TTB (SEQ 91); antisense UCCcucAAcAGAAAGcuAcUU (SEQ 92) (sense GUAGCUUUCUGUUGAGGGATT; antisense UCCCUCAACAGAAAGCUACUU; sense: sugars from the 5' end rfddffffffdffdddddddd, [invAb] at 5' end, 3' end, backbone not given here; antisense: sugars from the 5' end rrrfffmmfmmmmmmffmfmm, backbone not given here) | 23.9 ± 3.8 | 75 ± 4.7
29972-DC: Bach1 siNA duplex, target site 1262 (mouse); sense B GAuuuAuAucuGAAGucuA TTB (SEQ 93); antisense UAGAcuucAGAuAuAAAucUU (SEQ 94) (sense GAUUUAUAUCUGAAGUCUATT; antisense UAGACUUCAGAUAUAAAUCUU; sense: DNA at AGT, 2'-fluoro at CU, [invAb] at 5' end, 3' end, backbone not given here; antisense: sugars from the 5' end rrrmffffmmmfmfmmmffmm, backbone not given here) | −3.3 ± 27.4 | 71.7 ± 5.5
29973-DC: Bach1 siNA duplex, target site 1780 (mouse); sense B cucAcGAAAuGAuuuccAA TTB (SEQ 95); antisense UUGGAAAucAuuucGuGAGUU (SEQ 96) (sense CUCACGAAAUGAUUUCCAATT; antisense UUGGAAAUCAUUUCGUGAGUU; sense: DNA at AGT, 2'-fluoro at CU, [invAb] at 5' end, 3' end, backbone not given here; antisense: sugars from the 5' end rrrmmmmffmffffmfmmmmm, backbone not given here) | −8 ± 11.1 | 76.4 ± 5.3
29974-DC: Bach1 siNA duplex, target site 1739 (mouse); sense B GAGGuGAAGcuGccAuucA TTB (SEQ 97); antisense UGAAuGGcAGcuucAccucUU (SEQ 98) (sense GAGGUGAAGCUGCCAUUCATT; antisense UGAAUGGCAGCUUCACCUCUU; sense: DNA at AGT, 2'-fluoro at CU, [invAb] at 5' end, 3' end, backbone not given here; antisense: sugars from the 5' end rrrmfmmfmmffffmffffmm, backbone not given here) | −4.3 ± 15.5 | −12 ± 6.9
29975-DC: Bach1 siNA duplex, target site 1893 (mouse); sense B GucGcAAGAGGAAAcuuGA TTB (SEQ 99); antisense UCAAGuuuccucuuGcGAcUU (SEQ 100) (sense GUCGCAAGAGGAAACUUGATT; antisense UCAAGUUUCCUCUUGCGACUU; sense: DNA at AGT, 2'-fluoro at CU, [invAb] at 5' end, 3' end, backbone not given here; antisense: sugars from the 5' end rrrmmfffffffffmfmmfmm, backbone not given here) | 59 ± 8.3 | 40.4 ± 0.4
